The results in this text go back to patent US20240270762A1, “PENICILLIN-BINDING PROTEIN INHIBITORS” (priority 2021, published 2024).

The target in assay [1] is T1, A. baumannii PBP1a (Acinetobacter baumannii, UniProt A0ABX6CK30).
T1 sequence (A0ABX6CK30 1-851): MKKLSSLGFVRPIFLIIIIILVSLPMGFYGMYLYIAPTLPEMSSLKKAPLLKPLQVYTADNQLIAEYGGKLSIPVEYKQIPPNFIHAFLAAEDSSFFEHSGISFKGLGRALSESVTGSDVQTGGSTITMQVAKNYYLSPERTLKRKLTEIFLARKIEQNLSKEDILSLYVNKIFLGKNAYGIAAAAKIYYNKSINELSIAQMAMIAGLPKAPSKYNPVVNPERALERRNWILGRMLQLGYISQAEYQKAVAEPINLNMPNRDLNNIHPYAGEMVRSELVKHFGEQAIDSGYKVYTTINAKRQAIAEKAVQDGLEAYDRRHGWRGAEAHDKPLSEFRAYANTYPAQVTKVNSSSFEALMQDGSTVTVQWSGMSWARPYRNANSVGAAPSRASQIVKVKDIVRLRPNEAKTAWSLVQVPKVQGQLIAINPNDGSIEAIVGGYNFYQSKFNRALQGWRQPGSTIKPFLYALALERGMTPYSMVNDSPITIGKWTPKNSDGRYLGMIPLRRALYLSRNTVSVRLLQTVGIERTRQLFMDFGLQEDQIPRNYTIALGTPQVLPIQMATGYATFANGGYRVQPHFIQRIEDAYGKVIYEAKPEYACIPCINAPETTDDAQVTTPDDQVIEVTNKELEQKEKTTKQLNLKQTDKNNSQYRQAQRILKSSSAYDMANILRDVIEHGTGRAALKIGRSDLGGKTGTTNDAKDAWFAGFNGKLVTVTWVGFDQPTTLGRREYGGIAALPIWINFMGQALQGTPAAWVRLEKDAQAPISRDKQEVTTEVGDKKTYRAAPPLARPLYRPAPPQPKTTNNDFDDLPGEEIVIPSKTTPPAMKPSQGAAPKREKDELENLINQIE
The assay is described as follows: Bocillin-FL competition binding via gel filtration, A. baumannii PBP1a. To be noted: competition binding assay using Bocillin-FL via gel filtration; read-out: A. baumannii PBP1a Potency. The method in brief:
(§1)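 Enzyme was pre-incubated with rising inhibitor concentrations, then Bocillin-FL was added and incubated 15 minutes more. Bound probe was separated by gel filtration and fluorescence read. EC50 came from fitting fraction of PBP labelled versus inhibitor concentration to a Hill equation with ymin, ymax and n.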
On the technique in general: SEC sorts molecules by how far they enter the pores of the column.

The target of assay [2] is A. baumannii PBP2 (Acinetobacter baumannii, UniProt D0C8Z9). The assay can be described thus: Bocillin-FL competition binding via gel filtration, A. baumannii PBP2. The method in brief: as §1
Assay [3] deals with A. baumannii ATCC 19606. The assay can be described thus: microbe, parasite or virus in culture. Type of assay: cell-based. The note with it: Acinetobacter baumannii, ATCC19606, read-out: MIC, A. baumannii ATCC 19606.
In assay [4] the test system is A. baumannii CDC-0036. The assay is described as follows: microbe, parasite or virus in culture. The format is cell-based. The note with it: Acinetobacter baumannii, CDC0036, read-out: MIC, A. baumannii CDC-0036.
Assay [5] has as its system P. aeruginosa CDC-0110. The assay is described as follows: microbe, parasite or virus in culture. Type of assay: cell-based. The note with it: Pseudomonas aeruginosa, CDC0110, read-out: Minimum inhibitory concentration, P. aeruginosa CDC-0110.

SMILES strings stand for the structures. Converted amounts (≈) assume the structure as drawn.

Chain of A. baumannii PBP2 (D0C8Z9 whole entry): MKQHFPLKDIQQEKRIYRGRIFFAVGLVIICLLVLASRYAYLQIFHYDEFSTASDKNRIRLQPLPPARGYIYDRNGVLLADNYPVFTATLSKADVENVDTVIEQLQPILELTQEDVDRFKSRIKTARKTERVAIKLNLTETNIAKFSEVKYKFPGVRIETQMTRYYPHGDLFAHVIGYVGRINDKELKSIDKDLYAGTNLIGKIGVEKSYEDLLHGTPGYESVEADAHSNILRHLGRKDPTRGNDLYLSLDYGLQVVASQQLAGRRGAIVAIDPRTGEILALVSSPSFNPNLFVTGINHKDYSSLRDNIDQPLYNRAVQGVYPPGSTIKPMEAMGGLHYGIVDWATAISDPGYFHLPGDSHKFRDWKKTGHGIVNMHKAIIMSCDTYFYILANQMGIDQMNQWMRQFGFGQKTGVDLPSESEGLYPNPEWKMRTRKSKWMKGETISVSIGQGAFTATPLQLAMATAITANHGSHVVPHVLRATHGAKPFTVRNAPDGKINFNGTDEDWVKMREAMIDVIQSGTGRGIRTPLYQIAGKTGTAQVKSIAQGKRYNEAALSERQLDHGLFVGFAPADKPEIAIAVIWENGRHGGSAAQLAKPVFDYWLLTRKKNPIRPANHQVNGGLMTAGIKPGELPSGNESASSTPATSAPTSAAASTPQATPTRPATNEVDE

Take `O=C(NCCCN1CCN(C(=O)N[C@@H](C(=O)N[C@H]2Cc3ccc(F)c(C(=O)O)c3OB2O)c2cc(F)c(O)c(O)c2Cl)C1=O)Nc1ccc(O)cc1` [Example 284, (R)-3-((R)-2-(2-chloro-5-fluoro-3,4-dihydroxyphenyl)-2-(3-(3-(3-(4-hydroxyphenyl)ureido)propyl)-2-oxoimidazolidine-1-carboxamido)acetamido)-7-fluoro-2-hydroxy-3,4-dihydro-2H-benzo[e][1,2]oxaborinine-8-carboxylic acid]: the EC50 in assay [1] and in assay [2] was under 10 µM each time. Further, the MIC in assay [3], in assay [4] and in assay [5] was under 1 µg/mL each time.
In the case of `O=C(NCCCN1CCN(C(=O)NC(C(=O)N[C@H]2Cc3ccc(F)c(C(=O)O)c3OB2O)c2cc(F)c(O)c(O)c2Cl)C1=O)Nc1ccncc1` (stereo partly drawn) [Example 285, (3R)-3-(2-(2-chloro-5-fluoro-3,4-dihydroxyphenyl)-2-(2-oxo-3-(3-(3-(pyridin-4-yl)ureido)propyl)imidazolidine-1-carboxamido)acetamido)-7-fluoro-2-hydroxy-3,4-dihydro-2H-benzo[e][1,2]oxaborinine-8-carboxylic acid], the EC50 in assay [1] and in assay [2] was 10 to 50 µM each time. The MIC in assay [3] was under 1 µg/mL; in assay [4], 8 to 16 µg/mL (≈ 10.9 to 21.9 µM); in assay [5] it was 8 to 16 µg/mL (≈ 10.9 to 21.9 µM).
For `O=C(NCCS(=O)(=O)N1CCN(C(=O)N[C@@H](C(=O)N[C@H]2Cc3ccc(F)c(C(=O)O)c3OB2O)c2cc(F)c(O)c(O)c2Cl)C1=O)c1ccc(O)cc1` [Example 287, (R)-3-((R)-2-(2-chloro-5-fluoro-3,4-dihydroxyphenyl)-2-(3-((2-(4-hydroxybenzamido)ethyl)sulfonyl)-2-oxoimidazolidine-1-carboxamido)acetamido)-7-fluoro-2-hydroxy-3,4-dihydro-2H-benzo[e][1,2]oxaborinine-8-carboxylic acid], the values for the EC50 in assay [1] and in assay [2] were 10 to 50 µM and under 10 µM, respectively. Further, the MIC in assay [3] was under 1 µg/mL; in assay [4], 2 to 4 µg/mL (≈ 2.56 to 5.12 µM); in assay [5], under 1 µg/mL.
For `O=C(NCCS(=O)(=O)N1CCN(C(=O)NC(C(=O)N[C@H]2Cc3ccc(F)c(C(=O)O)c3OB2O)c2cc(F)c(O)c(O)c2Cl)C1=O)Nc1ccc(O)cc1` (stereo partly drawn) [Example 289, (3R)-3-(2-(2-chloro-5-fluoro-3,4-dihydroxyphenyl)-2-(3-((2-(3-(4-hydroxyphenyl)ureido)ethyl)sulfonyl)-2-oxoimidazolidine-1-carboxamido)acetamido)-7-fluoro-2-hydroxy-3,4-dihydro-2H-benzo[e][1,2]oxaborinine-8-carboxylic acid], the EC50 was under 10 µM in assay [1] and 10 to 50 µM in assay [2]. The MIC in assay [3] is under 1 µg/mL; in assay [4], 2 to 4 µg/mL (≈ 2.51 to 5.02 µM); in assay [5] it was 2 to 4 µg/mL (≈ 2.51 to 5.02 µM).
With `O=C(O)c1c(F)ccc2c1OB(O)[C@@H](NC(=O)C(NC(=O)N1CCN(C3CCN(C(=O)c4cccc(O)c4)CC3)C(=O)C1=O)c1cc(F)c(O)c(O)c1Cl)C2` (stereo partly drawn) [Example 293, (3R)-3-(2-(2-chloro-5-fluoro-3,4-dihydroxyphenyl)-2-(4-(1-(3-hydroxybenzoyl)piperidin-4-yl)-2,3-dioxopiperazine-1-carboxamido)acetamido)-7-fluoro-2-hydroxy-3,4-dihydro-2H-benzo[e][1,2]oxaborinine-8-carboxylic acid], the EC50 in assay [1] and in assay [2] was 10 to 50 µM throughout. Also, the MIC in assay [3], in assay [4] and in assay [5] was under 1 µg/mL throughout.
Consider `O=C(NCCCN1CCN(C(=O)NC(C(=O)N[C@H]2Cc3ccc(F)c(C(=O)O)c3OB2O)c2cc(F)c(O)c(O)c2Cl)C(=O)C1=O)c1ccncc1Cl` (stereo partly drawn) [Example 295, (3R)-3-(2-(2-chloro-5-fluoro-3,4-dihydroxyphenyl)-2-(4-(3-(3-chloroisonicotinamido)propyl)-2,3-dioxopiperazine-1-carboxamido)acetamido)-7-fluoro-2-hydroxy-3,4-dihydro-2H-benzo[e][1,2]oxaborinine-8-carboxylic acid], for which the EC50 in assay [1] and in assay [2] was 10 to 50 µM in each case. Moreover, the MIC in assay [3] is under 1 µg/mL; in assay [4], 2 to 4 µg/mL (≈ 2.57 to 5.13 µM); in assay [5], under 1 µg/mL.
For the compound `O=C(NCCCN1CCN(C(=O)N[C@@H](C(=O)N[C@H]2Cc3ccc(F)c(C(=O)O)c3OB2O)c2cc(F)c(O)c(O)c2Cl)C(=O)C1=O)c1ccncc1O` [Example 296, (R)-3-((R)-2-(2-chloro-5-fluoro-3,4-dihydroxyphenyl)-2-(4-(3-(3-hydroxyisonicotinamido)propyl)-2,3-dioxopiperazine-1-carboxamido)acetamido)-7-fluoro-2-hydroxy-3,4-dihydro-2H-benzo[e][1,2]oxaborinine-8-carboxylic acid], the EC50 in assay [1] and in assay [2] was under 10 µM in each case. Besides, the MIC in assay [3], in assay [4] and in assay [5] was under 1 µg/mL throughout.
Consider `Cc1cnccc1C(=O)NCCCN1CCN(C(=O)NC(C(=O)N[C@H]2Cc3ccc(F)c(C(=O)O)c3OB2O)c2cc(F)c(O)c(O)c2Cl)C(=O)C1=O` (stereo partly drawn) [Example 297, (3R)-3-(2-(2-chloro-5-fluoro-3,4-dihydroxyphenyl)-2-(4-(3-(3-methylisonicotinamido)propyl)-2,3-dioxopiperazine-1-carboxamido)acetamido)-7-fluoro-2-hydroxy-3,4-dihydro-2H-benzo[e][1,2]oxaborinine-8-carboxylic acid], for which the EC50 in assay [1] and in assay [2] was 10 to 50 µM throughout. In addition, the MIC in assay [3] is under 1 µg/mL; in assay [4], 2 to 4 µg/mL (≈ 2.64 to 5.27 µM); in assay [5], under 1 µg/mL.
`Cc1cc(C(=O)NCCCN2CCN(C(=O)N[C@@H](C(=O)N[C@H]3Cc4ccc(F)c(C(=O)O)c4OB3O)c3cc(F)c(O)c(O)c3Cl)C(=O)C2=O)ccn1` [Example 298, (R)-3-((R)-2-(2-chloro-5-fluoro-3,4-dihydroxyphenyl)-2-(4-(3-(2-methylisonicotinamido)propyl)-2,3-dioxopiperazine-1-carboxamido)acetamido)-7-fluoro-2-hydroxy-3,4-dihydro-2H-benzo[e][1,2]oxaborinine-8-carboxylic acid]: the EC50 in assay [1] and in assay [2] was 10 to 50 µM throughout. Also, the MIC in assay [3], in assay [4] and in assay [5] was under 1 µg/mL throughout.
With `O=C(NCCCN1CCN(C(=O)NC(C(=O)N[C@H]2Cc3ccc(F)c(C(=O)O)c3OB2O)c2cc(F)c(O)c(O)c2Cl)C(=O)C1=O)c1ccc(O)c(Cl)c1` (stereo partly drawn) [Example 305, (3R)-3-(2-(4-(3-(3-chloro-4-hydroxybenzamido)propyl)-2,3-dioxopiperazine-1-carboxamido)-2-(2-chloro-5-fluoro-3,4-dihydroxyphenyl)acetamido)-7-fluoro-2-hydroxy-3,4-dihydro-2H-benzo[e][1,2]oxaborinine-8-carboxylic acid], the EC50 in assay [1] and in assay [2] was under 10 µM throughout. In addition, the values for the MIC in assay [3], in assay [4] and in assay [5] were under 1 µg/mL, 2 to 4 µg/mL (≈ 2.52 to 5.04 µM) and under 1 µg/mL, respectively.
With `O=C(NCCCN1CCN(C(=O)NC(C(=O)N[C@H]2Cc3ccc(F)c(C(=O)O)c3OB2O)c2cc(F)c(O)c(O)c2Cl)C(=O)C1=O)c1ccc(O)c(F)c1F` (stereo partly drawn) [Example 306, (3R)-3-(2-(2-chloro-5-fluoro-3,4-dihydroxyphenyl)-2-(4-(3-(2,3-difluoro-4-hydroxybenzamido)propyl)-2,3-dioxopiperazine-1-carboxamido)acetamido)-7-fluoro-2-hydroxy-3,4-dihydro-2H-benzo[e][1,2]oxaborinine-8-carboxylic acid], the EC50 in assay [1] and in assay [2] was under 10 µM each time. The MIC is under 1 µg/mL in assay [3], 2 to 4 µg/mL (≈ 2.51 to 5.03 µM) in assay [4] and under 1 µg/mL in assay [5].
